Measured values: paper PMC6219668 (Oncotarget, 2018)
Read-outs that look alike come from different tables or passages of the source.

Legend:
[1] = test system: Rb phosphorylation; assay: animal or person; assay type: in vivo; conditions: Rattus norvegicus, JeKo-1, read-out: ppRb inhibition, range
[2] = test system: HBCx-1; assay type: in vivo; conditions: HBCx-1, Breast, HER2High, Rb absent; 125 mg/kg bid × 21
[3] = test system: HBCx-3; assay type: in vivo; conditions: HBCx-3, Breast, TNBC, Rb present; 125 mg/kg bid × 21
[4] = test system: HBCx-10; assay type: in vivo; conditions: HBCx-10, Breast, TNBC, Rb absent; 125 mg/kg bid × 21
[5] = test system: HBCx-11; assay type: in vivo; conditions: HBCx-11, Breast, TNBC, Rb present; 125 mg/kg bid × 21
[6] = test system: Hs 944.T; assay type: in vivo; conditions: Melanoma
[7] = test system: HPAX1199; assay type: in vivo; conditions: HPAX1199, Pancreatic, Rb present; 250 mg/kg qd
[8] = test system: NB1; assay: cells; assay type: cell-based; conditions: Homo sapiens, NB1, 72 h
[9] = test system: SNU-387; assay: cells; assay type: cell-based; conditions: Homo sapiens, SNU-387, 72 h
[10] = test system: NCI-H3122; assay: cells; assay type: cell-based; conditions: Homo sapiens, NCI-H3122, 72 h
[11] = test system: NCI-H460; assay: cells; assay type: cell-based; conditions: Homo sapiens, NCI-H460, 72 h
[12] = test system: HCC-4006; assay: cells; assay type: cell-based; conditions: Homo sapiens, HCC4006; HCC-4006, 72 h
[13] = test system: COR-L105; assay: cells; assay type: cell-based; conditions: Homo sapiens, COR-L105, 72 h
[14] = test system: HCC-827; assay: cells; assay type: cell-based; conditions: Homo sapiens, HCC827; HCC-827, 72 h
[15] = test system: PC-14; assay: cells; assay type: cell-based; conditions: Homo sapiens, PC-14, 72 h
[16] = test system: TE-5; assay: cells; assay type: cell-based; conditions: Homo sapiens, TE-5, 72 h
[17] = test system: KYSE30; assay: cells; assay type: cell-based; conditions: Homo sapiens, KYSE-30; KYSE30, 72 h
[18] = test system: KYSE450; assay: cells; assay type: cell-based; conditions: Homo sapiens, KYSE-450; KYSE450, 72 h
[19] = test system: TE-14; assay: cells; assay type: cell-based; conditions: TE-14, 72 h
[20] = test system: MELJUSO; assay: cells; assay type: cell-based; conditions: Homo sapiens, MEL-JUSO, 72 h
[21] = test system: hs944T; assay: cells; assay type: cell-based; conditions: 72 h
[22] = test system: SK-MEL-2; assay: cells; assay type: cell-based; conditions: Homo sapiens, SK-MEL-2, 72 h
[23] = test system: UACC-62; assay: cells; assay type: cell-based; conditions: Homo sapiens, UACC-62, 72 h
[24] = test system: WM-115; assay: cells; assay type: cell-based; conditions: Homo sapiens, WM-115, 72 h
[25] = test system: KELLY; assay: cells; assay type: cell-based; conditions: 72 h
[26] = test system: CHP-212; assay: cells; assay type: cell-based; conditions: Homo sapiens, CHP-212, 72 h
[27] = test system: NB1; assay: cells; assay type: cell-based; conditions: Homo sapiens, NB1, 72 h; remark: listed apart in the source
[28] = test system: MCF-7; assay: cells; assay type: cell-based; conditions: Homo sapiens, MCF7; MCF-7, 72 h
[29] = test system: MGH049; assay: cells; assay type: cell-based; conditions: MGH049, 72 h
[30] = test system: NCI-H1792; assay: cells; assay type: cell-based; conditions: Homo sapiens, NCI-H1792, 72 h
[31] = test system: NCI-H441; assay: cells; assay type: cell-based; conditions: Homo sapiens, NCI-H441, 72 h
[32] = test system: TE-11; assay: cells; assay type: cell-based; conditions: Homo sapiens, TE-11, 72 h
[33] = test system: MELJUSO; assay: cells; assay type: cell-based; conditions: Homo sapiens, MEL-JUSO, 72 h; remark: listed apart in the source
[34] = test system: SK-MEL-30; assay: cells; assay type: cell-based; conditions: Homo sapiens, SK-MEL-30, 72 h
[35] = test system: hs944T; assay: cells; assay type: cell-based; conditions: 72 h; remark: listed apart in the source
[36] = test system: UACC-62; assay: cells; assay type: cell-based; conditions: Homo sapiens, UACC-62, 72 h; remark: listed apart in the source
[37] = test system: WM-115; assay: cells; assay type: cell-based; conditions: Homo sapiens, WM-115, 72 h; remark: listed apart in the source
[38] = test system: CDK1/cyclin B; conditions: cited from earlier work
[39] = test system: JeKo-1; assay: cells; assay type: cell-based; conditions: Homo sapiens; JeKo-1, MCL, dominant CDK4; read-out: IC50, mean ± SD
[40] = test system: CAMA-1; assay: cells; assay type: cell-based; conditions: Homo sapiens; CAMA-1, ER+ BC, dominant CDK4; read-out: IC50, mean ± SD
[41] = test system: MCF-7; assay: cells; assay type: cell-based; conditions: Homo sapiens, MCF7; MCF-7, ER+ BC, dominant CDK4; read-out: IC50, mean ± SD
[42] = test system: Pfeiffer; assay: cells; assay type: cell-based; conditions: Homo sapiens, DLBCL, dominant CDK6, read-out: IC50, mean ± SD

Question: What does the source list for `CN(C)C(=O)c1cc2cnc(Nc3ccc(N4CCNCC4)cn3)nc2n1C1CCCC1` [Ribociclib, 7-cyclopentyl-2-(5-piperazin-1-yl-pyridin-2-ylamino)-7H-pyrrolo[2,3-d]pyrimidine-6-carboxylic acid dimethylamide]?
Answer: inhibition at 75 mg/kg [1]: 75 to 90%; inhibition at 150 mg/kg [1]: 97 to 100%; T/C [2]: 80; T/C [3]: 45; T/C [4]: 82; T/C [5]: 52; T/C ([6]; 150 mg/kg qd): 36; T/C ([6]; 250 mg/kg qd): 19; T/C [7]: 18; IC50 [8]: 0.37 µM; IC50 [9]: 2.49 µM; IC50 [10]: 0.51 µM; IC50 [11]: 0.62 µM; IC50 [12]: 0.87 µM; IC50 [13]: 1.92 µM; IC50 [14]: 6.12 µM; IC50 [15]: 6.98 µM; IC50 [16]: 2.39 µM; IC50 [17]: 4.06 µM; IC50 [18]: > 10 µM; IC50 [19]: > 10 µM; IC50 [20]: 0.89 µM; IC50 [21]: 1.62 µM; IC50 [22]: 4.81 µM; IC50 [23]: 9.7 µM; IC50 [24]: > 10 µM; IC50 [25]: 0.3 µM; IC50 [26]: 0.3 µM; IC50 [27]: 1.6 µM; IC50 [28]: > 10 µM; IC50 [29]: > 10 µM; IC50 [30]: > 10 µM; IC50 [31]: > 10 µM; IC50 [32]: > 10 µM; IC50 [33]: > 10 µM; IC50 [34]: > 10 µM; IC50 [35]: > 10 µM; IC50 [36]: > 10 µM; IC50 [37]: > 10 µM; activity against CDK1/cyclin B [38]: far less active

Question: Which IC50 [39] does the source give for `CC(=O)c1c(C)c2cnc(Nc3ccc(N4CCNCC4)cn3)nc2n(C2CCCC2)c1=O` [Palbociclib, reference compound] here?
Answer: The IC50 was 72 ± 33 µM.

Question: What about the IC50 [40] of the same molecule?
Answer: Its IC50 is 50 ± 24 µM.

Question: And the IC50 [41]?
Answer: Its IC50 is 30 ± 18 µM.

Question: What about the IC50 [42] of the same molecule?
Answer: Its IC50 is 89 ± 32 µM.
